Each compound was assayed against hTS (recombinant human TS, thymidylate synthase) (Homo sapiens, UniProt P04818) (assay: UV absorbance at […] nm, TS activity).
Assay type: biochemical

Sequence of hTS (recombinant human TS, thymidylate synthase) (P04818 2-313): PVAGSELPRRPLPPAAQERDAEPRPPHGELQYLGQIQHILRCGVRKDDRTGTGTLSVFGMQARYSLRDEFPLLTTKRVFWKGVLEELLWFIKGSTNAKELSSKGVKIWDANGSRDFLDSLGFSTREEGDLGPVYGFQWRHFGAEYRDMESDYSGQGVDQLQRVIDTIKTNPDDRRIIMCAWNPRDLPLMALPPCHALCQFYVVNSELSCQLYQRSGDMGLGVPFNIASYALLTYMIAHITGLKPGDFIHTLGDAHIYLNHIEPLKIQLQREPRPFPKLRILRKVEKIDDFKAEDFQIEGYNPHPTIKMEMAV

Compound | IC50
Cc1cccc(-c2nnc(-c3cccc(NS(=O)(=O)c4c[nH]c(=O)[nH]c4=O)c3)o2)c1 [7c, N-(3-(5-(m-tolyl)-1,3,4-oxadiazol-2-yl)phenyl)-2,4-dihydroxypyrimidine-5-sulfonamide] | 1.46 ± 0.37 µM
Cc1ccc(-c2nnc(-c3cccc(NS(=O)(=O)c4c[nH]c(=O)[nH]c4=O)c3)o2)cc1 [7d, N-(3-(5-(p-tolyl)-1,3,4-oxadiazol-2-yl)phenyl)-2,4-dihydroxypyrimidine-5-sulfonamide] | 1.79 ± 0.12 µM
O=c1[nH]cc(S(=O)(=O)Nc2cccc(-c3nnc(-c4cccc(Cl)c4)o3)c2)c(=O)[nH]1 [7f, N-(3-(5-(3-chlorophenyl)-1,3,4-oxadiazol-2-yl)phenyl)-2,4-dihydroxypyrimidine-5-sulfonamide] | 0.11 ± 0.03 µM
O=c1[nH]cc(S(=O)(=O)Nc2cccc(-c3nnc(-c4ccc(Cl)cc4)o3)c2)c(=O)[nH]1 [7g, N-(3-(5-(4-chlorophenyl)-1,3,4-oxadiazol-2-yl)phenyl)-2,4-dihydroxypyrimidine-5-sulfonamide] | 0.44 ± 0.1 µM
O=c1[nH]cc(S(=O)(=O)Nc2cccc(-c3nnc(-c4cccc(F)c4)o3)c2)c(=O)[nH]1 [7i, N-(3-(5-(3-fluorophenyl)-1,3,4-oxadiazol-2-yl)phenyl)-2,4-dihydroxypyrimidine-5-sulfonamide] | 4.61 ± 1.1 µM
O=c1[nH]cc(S(=O)(=O)Nc2cccc(-c3nnc(-c4ccc(Br)cc4)o3)c2)c(=O)[nH]1 [7m, N-(3-(5-(4-bromophenyl)-1,3,4-oxadiazol-2-yl)phenyl)-2,4-dihydroxypyrimidine-5-sulfonamide] | 1.29 ± 0.12 µM
Nc1nc2[nH]cc(CCc3ccc(C(=O)N[C@@H](CCC(=O)O)C(=O)O)cc3)c2c(=O)[nH]1 [PTX] | 2.44 ± 0.88 µM

Next, values leading:

IC50 | Compound
3.15 ± 0.61 µM | O=c1[nH]cc(S(=O)(=O)Nc2cccc(-c3nnc(-c4ccccc4)o3)c2)c(=O)[nH]1 [7a, N-(3-(5-phenyl-1,3,4-oxadiazol-2-yl)phenyl)-2,4-dihydroxypyrimidine-5-sulfuramide]
2.75 ± 0.29 µM | Cc1ccccc1-c1nnc(-c2cccc(NS(=O)(=O)c3c[nH]c(=O)[nH]c3=O)c2)o1 [7b, N-(3-(5-(o-tolyl)-1,3,4-oxadiazol-2-yl)phenyl)-2,4-dihydroxypyrimidine −5-sulfonamide]
0.65 ± 0.43 µM | O=c1[nH]cc(S(=O)(=O)Nc2cccc(-c3nnc(-c4ccccc4Cl)o3)c2)c(=O)[nH]1 [7e, N-(3-(5-(2-chlorophenyl)-1,3,4-oxadiazol-2-yl)phenyl)-2,4-dihydroxypyrimidine-5-sulfonamide]
5.18 ± 0.73 µM | O=c1[nH]cc(S(=O)(=O)Nc2cccc(-c3nnc(-c4ccccc4F)o3)c2)c(=O)[nH]1 [7h, N-(3-(5-(2-fluorophenyl)-1,3,4-oxadiazol-2-yl)phenyl)-2,4-dihydroxypyrimidine-5-sulfonamide]
1.16 ± 0.37 µM | O=c1[nH]cc(S(=O)(=O)Nc2cccc(-c3nnc(-c4ccccc4Br)o3)c2)c(=O)[nH]1 [7k, N-(3-(5-(2-bromophenyl)-1,3,4-oxadiazol-2-yl)phenyl)-2,4-dihydroxypyrimidine-5-sulfonamide]
0.93 ± 0.28 µM | O=c1[nH]cc(S(=O)(=O)Nc2cccc(-c3nnc(-c4cccc(Br)c4)o3)c2)c(=O)[nH]1 [7l, N-(3-(5-(3-bromophenyl)-1,3,4-oxadiazol-2-yl)phenyl)-2,4-dihydroxypyrimidine-5-sulfonamide]

From paper PMC7584679 (Journal of Advanced Research, 2020)
